Source: patent US20120065170A1, “Antimicrobial Cyclocarbonyl Heterocyclic Compounds For Treatment Of Bacterial Infections” (priority 2010, published 2012)
Values after ≈ are worked out from the molar mass of the structure shown. Where two headings read alike, the source gives them in different places.

Key:
H. influenzae = test: MIC against isolates of H. influenzae; assay type: cell-based, Haemophilus influenzae; details: for MIC: Haemophilus influenzae
From the text: (§1) Compounds of this invention can have useful activity against a variety of pathogenic microorganisms. The in vitro activity of compounds of this invention can be assessed by standard testing procedures such as the determination of minimum inhibitory concentration (MIC) by agar dilution as described in “Approved Standard. Methods for Dilution Antimicrobial Susceptibility Tests for Bacteria That Grow Aerobically”, 3rd. ed., published 1993 by the National Committee for Clinical Laboratory Standards, Villanova, Pa., USA. Minimum inhibitory concentration (MIC) refers to the lowest concentration of drug (μg/mL) that inhibits visible growth of the organism. Lower MIC values indicate a higher antibacterial activity. Typically, compounds of the present invention have useful potency against Gram-positive or Gram-negative pathogens with MIC values of ≦8 μg/mL. To measure useful antibacterial activity against multiple bacterial isolates or strains, MIC90 (or minimal inhibitory concentration of the drug that inhibits visible growth of 90% of the microbes in each bacterial specie panel) is determined. Lower MIC number indicates an elevated degree of useful antibacterial activity, while higher MIC number indicates a reduced antibacterial activity. An agent with too high MIC against a bacterial pathogen can not be used for the treatment of infections caused by such microbial species.
The useful activity of representative compounds of the present invention against several isolates of H. influenzae is illustrated by the MIC data of Table 3. H. influenzae is a fastidious Gram-negative pathogen implicated in multiple infections, including pneumonia and bacterial meningitis. No oxazolidinone agent is presently approved for the treatment of H. influenzae infections.

[1] = tested on: key Gram-positive pathogens; test: MIC against key Gram-positive pathogens, further compounds (tests of Table 1); assay type: cell-based; details: in the tests of Table 1
From the text: as §1
(§2) The useful activity of compounds of the present invention against an expanded set of clinical isolates of Staphylococcus aureus (including methicillin-resistant strain, MRSA), Enterococci (including Enterococcus faecalis and Enterococus faecium), and […] is illustrated by the MIC90 data in Table 1.

S. aureus = test: MIC90 against linezolid-susceptible clinical isolates of S. aureus; assay type: cell-based, Staphylococcus aureus; details: for MIC90: Staphylococcus aureus, 34 strains, linezolid-susceptible, including MRSA
From the text: as §1, §2

Enterococci = test: MIC90 against linezolid-susceptible Enterococci; assay type: cell-based; details: for MIC90: Enterococcus faecalis, 34 strains, linezolid-susceptible
From the text: as §1, §2

S. pneumoniae = test: MIC90 against linezolid-susceptible S. pneumoniae; assay type: cell-based, Streptococcus pneumoniae; details: for MIC90: Streptococcus pneumoniae, read-out: S. pneumoniae (34 strains) MIC90
From the text: as §1, §2

[2] = tested on: linezolid-resistant S. aureus; test: MIC against linezolid-resistant S. aureus strains; assay type: cell-based, Staphylococcus aureus; details: one value per group of strains; for MIC: Staphylococcus aureus, read-out: S. aureus (no. of strains) MIC
From the text: as §1
(§3) The useful activity of representative compounds of the present invention against several isolates of linezolid-resistant Staphylococcus aureus, Enterococus faecalis and Enterococcu faecium illustrated by the MIC data of Table 2.

[3] = tested on: linezolid-resistant E. faecalis; test: MIC against linezolid-resistant E. faecalis strains; assay type: cell-based, Enterococus faecalis; details: one value per group of strains; for MIC: Enterococcus faecalis, read-out: E. faecalis (no. of strains) MIC
From the text: as §1, §3

[4] = tested on: linezolid-resistant E. faecium; test: MIC against linezolid-resistant E. faecium strains; assay type: cell-based, Enterococcus faecium; details: one value per group of strains; for MIC: Enterococcus faecium, read-out: E. faecium (no. of strains) MIC
From the text: as §1, §3

reticulocytes = test: 5-days mouse sub-acute toxicity test (myelosuppression, reticulocyte count); assay type: in vivo; details: for Ratio for reticulocyte count relative to that for compound of Example 1 / fold drop in the reticulocyte cells counts compared to compound of Example 1: 37.5 mg/kg/day twice-daily, day 5
Experimental: The potential of representative compounds of this invention for myelosuppression has been evaluated in a 5-days mouse sub-acute toxicity test. For comparison purposes, Reference Compound 14 (Example 143 of publication US 2003/0166620) and Reference Compound 15 (TR-700 or torezolid; publications PCT WO2005/058886 and PCT WO2010/042887) have been included. The compounds were dosed to mice at 37.5 mg/kg/day on a twice-daily schedule. On day 5, blood was harvested for hematology testing. The toxicity was evaluated based on the reduction in the number of reticulocytes, previously described as the key marker for myelosuppression signs in pre-clinical testing of oxazolidinones, including linezolid. Thus, a higher degree of a reduction in the reticulocyte count is indicative of an elevated toxicity, while a lower drop in the reticulocyte count indicates a reduced propensity to the myelosuppression effect on the blood cells.

Haemophilus influenzae = details: reported value; cited from earlier work
Staphylococcus species = details: cited from earlier work
[5] = tested on: linezolid-resistant bacterial strains; details: cited from earlier work
[6] = one value per group of strains, read-out: H. influenzae (no. of strains) MIC
[7] = 34 strains, linezolid-susceptible
[8] = versus Reference Compound 15, Table 1 data
[9] = read-out: MIC values against H. influenzae as summarised in text, summary of Table 3
[10] = mice, 37.5 mg/kg/day on a twice-daily schedule, blood on day 5

SMILES | MIC (H. influenzae; [6]) [µg/mL] | MIC values compared to linezolid or Reference Compound 15 [1] | MIC90 (S. aureus) [µg/mL] | MIC90 (Enterococci) [µg/mL] | MIC [3] [µg/mL] | MIC [4] [µg/mL] | H. influenzae (no. of strains) MIC (H. influenzae; one value per group of strains) | Ratio for reticulocyte count relative to that for compound of Example 1 (reticulocytes; mice) | also measured
O=C1O[C@@H](CO)CN1c1ccc(-c2ccc(N3CCOC3=O)nc2)cc1 [Example 13] | 4 (≈ 11.3 µM) | lower range MIC values |  |  |  |  |  |  | 
Cn1nnc(-c2ccc(-c3ccc(N4C[C@H](CO)OC4=O)cc3F)cn2)n1 [Ref. Cpd. 15, (5R)-3-[3-fluoro-4-[6-(2-methyltetrazol-5-yl)-3-pyridyl]phenyl]-5-(hydroxymethyl)oxazolidin-2-one] | > 16 |  | 0.5 (≈ 1.35 µM) | 0.5 (≈ 1.35 µM) | 4 (≈ 10.8 µM) | 4 (≈ 10.8 µM) | 8 (4 strains) μg/mL | 0.15 | MIC90 (S. pneumoniae): 0.25 µg/mL (≈ 0.675 µM); MIC [2]: 8 µg/mL (≈ 21.6 µM); S. aureus (no. of strains) MIC [2]: 4 (2 strains) μg/mL; E. faecium (no. of strains) MIC [4]: 2 (1 strain)^ μg/mL; fold drop in the reticulocyte cells counts compared to compound of Example 1 (reticulocytes; mice): ~2.6 fold; Reticulocyte count on Day 5, cell count (reticulocytes; mouse, in vivo, 37.5 mg/kg/day, 5 days): 1.91e+10 L⁻¹
CC(=O)NC[C@H]1CN(c2ccc(N3CCOCC3)c(F)c2)C(=O)O1 [Linezolid, linezolid] | 8 (≈ 23.7 µM) |  | 2 (≈ 5.93 µM) | 2 (≈ 5.93 µM) | 16 (≈ 47.4 µM) | 16 (≈ 47.4 µM) | 16 (2 strains) μg/mL |  | MIC90 (S. pneumoniae; [7]): 1 µg/mL (≈ 2.96 µM); MIC [2]: 16 µg/mL (≈ 47.4 µM); S. aureus (no. of strains) MIC [2]: >16 (3 strains) μg/mL; MIC90 against Haemophilus influenzae (typical) (Haemophilus influenzae): 16 µg/mL (≈ 47.4 µM); MIC against Staphylococci species (such as S. aureus) (Staphylococcus species; generally displayed): 2 to 4 µg/mL; useful MIC90 against Gram-positive Staphylococcus species (Staphylococcus species; species for which the drug is indicated): 2 to 4 µg/mL; MICs against linezolid-resistant bacterial strains [5]: ≥ 8 µg/mL
O=C1O[C@@H](CO)CN1c1ccc(-c2ccc(N3CCNC3=O)nc2)c(F)c1 [Example 7] |  | lower range MIC values |  |  |  | 0.5 (≈ 1.34 µM) |  |  | E. faecium (no. of strains) MIC [4]: 1 (4 strains) μg/mL
O=C1O[C@@H](CO)CN1c1ccc(-c2ccc(N3CCOC3=O)nc2)c(F)c1 [Example 1] | 2 (≈ 5.36 µM) |  | 0.125 (≈ 0.335 µM) | 0.25 (≈ 0.67 µM) | 0.5 (≈ 1.34 µM) | 0.5 (≈ 1.34 µM) | 4 (1 strain)^ μg/mL | 1 | MIC90 fold lower than Reference Compound 15, S. aureus (S. aureus; [8]): about 4 fold; MIC90 fold lower than linezolid, S. aureus (S. aureus; versus linezolid, Table 1 data): about 16 fold; MIC90 fold lower than Reference Compound 15, Enterococci species (Enterococci; [8]): ~2 fold; MIC90 fold lower than linezolid, Enterococci species (Enterococci; versus linezolid, Table 1 data): ~8 fold; MIC90 (S. pneumoniae; [7]): 0.06 µg/mL (≈ 0.161 µM); MIC90 fold lower than Reference Compound 15, S. pneumoniae (S. pneumoniae; [8]): about 4 fold; MIC90 fold lower than linezolid, S. pneumoniae (S. pneumoniae; versus linezolid, Table 1 data): about 16 fold; E. faecalis (no. of strains) MIC [3]: 1 (3 strains) μg/mL; MIC (H. influenzae; [9]): < 4 µg/mL; Reticulocyte count on Day 5, cell count (reticulocytes; [10]): 1.275e+11 L⁻¹
CC(=O)NC[C@H]1CN(c2ccc(-c3ccc(N4CCOC4=O)nc3)c(F)c2)C(=O)O1 [Ref. Cpd. 14, N-[[(5S)-3-[3-fluoro-4-[6-(2-oxooxazolidin-3-yl)-3-pyridyl]phenyl]-2-oxo-oxazolidin-5-yl]methyl]acetamide] |  |  |  |  |  |  |  | 0.39 | Reticulocyte count on Day 5, cell count (reticulocytes; [10]): 5e+10 L⁻¹; fold drop in the reticulocyte cells counts compared to compound of Example 1 (reticulocytes; mice): ~2.6 fold
O=C1O[C@@H](CO)CN1c1ccc(-c2ccc(N3CCCC3=O)nc2)c(F)c1 [Example 10] | 4 (≈ 10.8 µM) | lower range MIC values |  |  | 1 (≈ 2.69 µM) | 1 (≈ 2.69 µM) |  |  | E. faecalis (no. of strains) MIC [3]: 2 (3 strains) μg/mL; MIC (H. influenzae; [9]): < 4 µg/mL
